Experimental data from the supplement of paper PMC11451515.

Test system: NOMO1
Experiment: cell viability relative to DMSO control; higher = less cytotoxic
Settings: 48 h
Procedure, shortened: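 Viability is expressed as a percentage of DMSO wells within each plate, and cell-free wells serve as background. Seeding densities in the 1536-well plates (5 μl) were 500 cells/well for NOMO1 or SEM leukemia cells and 1000 cells/well for P12-Ichikawa. Each line was adapted for at least four passages in each medium. Library compounds in DMSO were pin-dosed at 47 μM to 0.79 nM (11 points, threefold), and CellTiter-Glo One luminescence was read after 48 h at 37°C.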

[1] = RPMI 5 mM glucose + 10% FBS, 0.000781 µM
[2] = RPMI 5 mM glucose + 10% FBS, 0.00234 µM
[3] = RPMI 5 mM glucose + 10% FBS, 0.00702 µM
[4] = RPMI 5 mM glucose + 10% FBS, 0.0211 µM
[5] = RPMI 5 mM glucose + 10% FBS, 0.0632 µM
[6] = RPMI 5 mM glucose + 10% FBS, 0.19 µM
[7] = RPMI 5 mM glucose + 10% FBS, 0.569 µM
[8] = RPMI 5 mM glucose + 10% FBS, 1.71 µM
[9] = RPMI 5 mM glucose + 10% FBS, 5.12 µM
[10] = RPMI 5 mM glucose + 10% FBS, 15.4 µM
[11] = RPMI 5 mM glucose + 10% FBS, 46.1 µM
[12] = HPLM + 10% dialyzed FBS, 0.000781 µM
[13] = HPLM + 10% dialyzed FBS, 0.00234 µM
[14] = HPLM + 10% dialyzed FBS, 0.00702 µM
[15] = HPLM + 10% dialyzed FBS, 0.0211 µM
[16] = HPLM + 10% dialyzed FBS, 0.0632 µM
[17] = HPLM + 10% dialyzed FBS, 0.19 µM
[18] = HPLM + 10% dialyzed FBS, 0.569 µM
[19] = HPLM + 10% dialyzed FBS, 1.71 µM
[20] = HPLM + 10% dialyzed FBS, 5.12 µM
[21] = HPLM + 10% dialyzed FBS, 15.4 µM
[22] = HPLM + 10% dialyzed FBS, 46.1 µM
[23] = RPMI 5 mM glucose + 10% dialyzed FBS, 0.000781 µM
[24] = RPMI 5 mM glucose + 10% dialyzed FBS, 0.00234 µM
[25] = RPMI 5 mM glucose + 10% dialyzed FBS, 0.00702 µM
[26] = RPMI 5 mM glucose + 10% dialyzed FBS, 0.0211 µM
[27] = RPMI 5 mM glucose + 10% dialyzed FBS, 0.0632 µM
[28] = RPMI 5 mM glucose + 10% dialyzed FBS, 0.19 µM
[29] = RPMI 5 mM glucose + 10% dialyzed FBS, 0.569 µM
[30] = RPMI 5 mM glucose + 10% dialyzed FBS, 1.71 µM
[31] = RPMI 5 mM glucose + 10% dialyzed FBS, 5.12 µM
[32] = RPMI 5 mM glucose + 10% dialyzed FBS, 15.4 µM
[33] = RPMI 5 mM glucose + 10% dialyzed FBS, 46.1 µM

N[C@@H](Cc1ccc(N(CCCl)CCCl)cc1)C(=O)O showed a cell viability [1] of 124%, a cell viability [2] of 130% and a cell viability [3] of 123%. For the same compound, the cell viability [4] was 142%, the cell viability [5] was 150% and the cell viability [6] was 140%. It also gave a cell viability [7] of 137%, a cell viability [8] of 137% and a cell viability [9] of 124%. For the same compound, the cell viability [10] was 44.8% and the cell viability [11] was 23.8%.
O=C(O)C(=O)Nc1cccc(-c2nnn[nH]2)c1 was tested, and the cell viability [12] was 96.8%, the cell viability [13] was 117% and the cell viability [14] was 117%. For the same compound, the cell viability [15] was 119%, the cell viability [16] was 114% and the cell viability [17] was 108%. It also gave a cell viability [18] of 130%, a cell viability [19] of 114% and a cell viability [20] of 123%. For the same compound, the cell viability [21] was 106%, the cell viability [22] was 116% and the cell viability [1] was 94.3%. The cell viability [2] was 102%, the cell viability [3] was 109% and the cell viability [4] was 95.8%. For the same compound, the cell viability [5] was 111%, the cell viability [6] was 108% and the cell viability [7] was 97.3%. The cell viability [8] was 106%, the cell viability [9] was 108% and the cell viability [10] was 120%. For the same compound, the cell viability [11] was 99.2%, the cell viability [23] was 109% and the cell viability [24] was 103%. It also gave a cell viability [25] of 111%, a cell viability [26] of 99.2% and a cell viability [27] of 112%. For the same compound, the cell viability [28] was 106%, the cell viability [29] was 126% and the cell viability [30] was 104%. For the same compound, the cell viability [31] was 113%, the cell viability [32] was 113% and the cell viability [33] was 120%.
NC(=O)[C@@H](CCC(F)(F)F)N(Cc1ccc(-c2ncon2)cc1F)[S+](=O)([O-])c1ccc(Cl)cc1 showed a cell viability [12] of 107%, a cell viability [13] of 106% and a cell viability [14] of 113%. The cell viability [15] was 108%, the cell viability [16] was 109% and the cell viability [17] was 105%. It also gave a cell viability [18] of 97.5%, a cell viability [19] of 91.7% and a cell viability [20] of 96.3%. For the same compound, the cell viability [21] was 71%, the cell viability [22] was 3.05% and the cell viability [1] was 92.8%. It also gave a cell viability [2] of 103%, a cell viability [3] of 91.1% and a cell viability [4] of 90.6%. It also gave a cell viability [5] of 97.8%, a cell viability [6] of 96.3% and a cell viability [7] of 78.5%. It also gave a cell viability [8] of 73.9%, a cell viability [9] of 84.6% and a cell viability [10] of 77.2%. The cell viability [11] was 61%, the cell viability [23] was 94.4% and the cell viability [24] was 93%. The cell viability [25] was 97.1%, the cell viability [26] was 88.3% and the cell viability [27] was 96.9%. The cell viability [28] was 105%, the cell viability [29] was 87% and the cell viability [30] was 83.2%. The cell viability [31] was 88.5%, the cell viability [32] was 81.6% and the cell viability [33] was 50.2%.
Compound Cc1nc(C(=O)NCC(=O)O)c(O)c2ccc(Oc3ccccc3)cc12 has a cell viability [12] of 106%, a cell viability [13] of 113% and a cell viability [14] of 113%. The cell viability [15] was 119%, the cell viability [16] was 113% and the cell viability [17] was 116%. For the same compound, the cell viability [18] was 104%, the cell viability [19] was 101% and the cell viability [20] was 118%. The cell viability [21] was 97.4%, the cell viability [22] was 107% and the cell viability [1] was 99.4%. The cell viability [2] was 105%, the cell viability [3] was 95.7% and the cell viability [4] was 87.2%. For the same compound, the cell viability [5] was 94.5%, the cell viability [6] was 104% and the cell viability [7] was 86.6%. It also gave a cell viability [8] of 94.9%, a cell viability [9] of 84.5% and a cell viability [10] of 102%. The cell viability [11] was 92.5%, the cell viability [23] was 84.4% and the cell viability [24] was 85.3%. It also gave a cell viability [25] of 108%, a cell viability [26] of 105% and a cell viability [27] of 116%. The cell viability [28] was 98.2%, the cell viability [29] was 96.2% and the cell viability [30] was 94.9%. For the same compound, the cell viability [31] was 82.2%, the cell viability [32] was 104% and the cell viability [33] was 99.4%.
